The text below walks through data of US7507540B1, “Catalytic anti-factor VIII allo-antibodies” (Institut National de la Sante et de la Recherche Medicale …, priority 1999, dated 2009).

Non-standard residues stand in square brackets, D forms with d. Residues, ends and D or L forms follow the SMILES beside them. *: point of attachment. Sta = CC(C)C[C@H](N)[C@@H](O)CC(=O)O; Isovaleryl = CC(C)CC(=O)*

In this assay the test system is proteolytic activity of anti-Factor VIII IgG. As to the kind of experiment: Inhibition of anti-Factor VIII IgG-catalysed hydrolysis of [125I]-Factor VIII. Format: biochemical, human. The settings on record: for inhibition of proteolytic activity of anti-Factor VIII IgG: IgG of patients Bor and Wal. The protocol:
Commercial human recombinant Factor VIII was labelled with ^125I to a specific activity of 11.6 nCi/μg, by using the iodogen method. [^125I]-Factor VIII (1.5 to 150 ng) was incubated in 50 μl of 50 mM tris-HCI pH 7.7, 100 mM glycine, 0.025% Tween-20 and 0.02% NaN3 alone or with 17 to 1667 nM of immuno-purified anti-Factor VIII IgG for 5 min to 10 hours at 38° C. Human monoclonal anti-digoxin IgG M061 (mAb) and normal unfractionated human polyclonal IgG (IVIg, Sandoglobulin®), were used as negative controls. Samples were mixed 1:1 with Laemmli's buffer without mercaptoethanol, and were subjected to SDS electrophoresis without boiling,. Samples were run in parallel on 7.5% and 15% SDS-PAGE under non-reducing conditions, after loading 20 μl of each sample per lane. Migration was performed at room temperature using a mini-PROTEAN II system at 25 mA/gel, until the dye front reached the bottom of the gel. […] Following autoradiography, the Factor VIII bands of apparent molecular weight 200 and 300 kDa that are consistently hydrolysed by anti-Factor VIII IgG, were scanned so as to allow for the calculation of the rate of hydrolysis of labelled Factor VIII.
Hydrolysis of [^125I]-Factor VIII by affinity-purified anti-Factor VIII IgG antibodies of haemophilia A patients with inhibitor in the presence of Pefabloc®. [^125I]-Factor VIII (150 ng) was incubated alone, with 50 μg/ml of immunopurified anti-Factor VIII IgG of patient Wal or in the presence of both anti-Factor VIII IgG and 4 mM of the serine protease inhibitor Pefabloc® (Boehringer) for 5 h at 38° C. Factor VIII was then analysed by 7.5% SDS-PAGE under non-reducing conditions. Following autoradiography, the Factor VIII bands of apparent molecular weight 200 and 300 kDa that are consistently hydrolysed by anti-FVIII IgG, were scanned so as to allow for the calculation of the % of hydrolysis of labelled […].

As for `CC(C)C[C@H](NC(=O)[C@H]1O[C@@H]1C(=O)O)C(=O)NCCCCN=C(N)N` [E-64], where the note is “E-64 28 μM”, the “inhibition of proteolytic activity of anti-Factor VIII IgG” value (“inhibition … of anti-Factor VIII IgG” below) is given as “did not result in inhibition of proteolytic activity”. In the case of `O=C(O)CN(CCN(CC(=O)O)CC(=O)O)CC(=O)O` [EDTA], the “inhibition … of anti-Factor VIII IgG” value (EDTA 1.3 μM) is reported as “did not result in inhibition of proteolytic activity”. On to `Cl.NCCc1ccc(S(=O)(=O)F)cc1` [Pefabloc, 4-(2-aminoethyl)benzenesulphonyl fluoride hydrochloride], for which, where the note is “4 mM Pefabloc, 50 μg/ml IgG of patient Wal, 5 h at 38° C.”, the “inhibition of proteolysis of radio-labelled Factor VIII by anti-Factor VIII allo-antibodies of patient Wal” value was “about 62%”. `CC(=O)N[C@@H](CC(C)C)C(=O)N[C@@H](CC(C)C)C(=O)N[C@H](C=O)CCCNC(=N)N` [leupeptin]: the “inhibition … of anti-Factor VIII IgG” value (leupeptin 10 μM) is given as “did not result in inhibition of proteolytic activity”. For `CC(C)CC(=O)N[C@H](C(=O)N[C@H](C(=O)N[C@@H](CC(C)C)[C@@H](O)CC(=O)N[C@@H](C)C(=O)N[C@@H](CC(C)C)[C@@H](O)CC(=O)O)C(C)C)C(C)C` [pepstatin] (Isovaleryl-VV[Sta]A[Sta]-OH), the “inhibition … of anti-Factor VIII IgG” value (pepstatin 10 μM) is given as “did not result in inhibition of proteolytic activity”. As for aprotinin, the “inhibition … of anti-Factor VIII IgG” value (aprotinin 0.15 μM) is listed as “did not result in inhibition of proteolytic activity”. Take vWF: purified von Willebrand Factor: the “partial inhibition of hydrolysis of Factor VIII by anti-Factor VIII IgG” value (30 μg/ml of vWF versus 300 ng/ml of Factor VIII) is listed as 36.9%.
